Reference: paper PMC10709440, “High-throughput ligand profile characterization in novel cell lines expressing seven heterologous insect olfactory receptors for the detection of volatile plant biomarkers” (Scientific Reports, 2023)
Where two headings read alike, the source gives them in different places.

Experiments:
[1] = molecular target: T1, Drosophila OR49b (Drosophila melanogaster, UniProt Q9V6H2); assay: cell-based; conditions: for activation at 1 µM / activation at 10 µM / activation at 100 µM: HEK293; for Average response / OR49b response (VUAA1-normalized) at 1 μM / OR49b response (VUAA1-normalized) at 10 μM / OR49b response (VUAA1-normalized) at 100 μM: OR49b cell line; for Average response: mean of biological replicates
T1 construct: expressed in transfected cells
T1 sequence (Q9V6H2 1-375): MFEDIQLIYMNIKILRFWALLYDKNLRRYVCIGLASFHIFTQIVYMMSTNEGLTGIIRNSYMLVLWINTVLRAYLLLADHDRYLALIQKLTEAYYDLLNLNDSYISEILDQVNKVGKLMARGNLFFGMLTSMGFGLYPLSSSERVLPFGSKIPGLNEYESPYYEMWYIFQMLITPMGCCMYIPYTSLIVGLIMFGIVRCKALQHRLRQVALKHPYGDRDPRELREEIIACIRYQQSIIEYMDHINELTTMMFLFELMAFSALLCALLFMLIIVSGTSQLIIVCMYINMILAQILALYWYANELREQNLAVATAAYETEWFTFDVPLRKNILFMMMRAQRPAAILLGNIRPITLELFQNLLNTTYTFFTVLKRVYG
T1 sequence (Q9VNB5 1-486 partner): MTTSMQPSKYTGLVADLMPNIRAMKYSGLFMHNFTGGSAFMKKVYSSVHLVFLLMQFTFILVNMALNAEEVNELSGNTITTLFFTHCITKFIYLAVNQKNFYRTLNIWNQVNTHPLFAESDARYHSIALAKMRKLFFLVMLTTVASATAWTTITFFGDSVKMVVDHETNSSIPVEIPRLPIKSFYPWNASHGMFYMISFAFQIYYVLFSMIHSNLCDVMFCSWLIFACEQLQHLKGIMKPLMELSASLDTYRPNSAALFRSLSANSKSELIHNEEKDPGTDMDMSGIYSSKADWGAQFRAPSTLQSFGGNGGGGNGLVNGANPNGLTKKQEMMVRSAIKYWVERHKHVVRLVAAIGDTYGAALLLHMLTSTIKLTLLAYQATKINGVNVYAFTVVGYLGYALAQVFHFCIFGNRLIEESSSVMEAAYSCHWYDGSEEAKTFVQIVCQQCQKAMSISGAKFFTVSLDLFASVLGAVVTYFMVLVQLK
Outline: (§1)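 HEK293 lines stably expressing each Drosophila OR with GCaMP6, doxycycline-induced (1 μg/mL) 48 or 72 h. Fluorescence recorded 5 s baseline then 30 s after VOC injection at pH 7.3; ΔF=(FMAX−F0)/F0, normalized to 50 µM VUAA1 response per line, triplicate wells averaged; concentration series 0.01–100 μM.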

[2] = molecular target: T2, Drosophila OR71a (Drosophila melanogaster, UniProt Q9VUK5); assay: Calcium ion fluorescence (GCaMP6) assay, OR71a stable HEK293 cell line; assay type: cell-based; conditions: for activation at 1 µM / activation at 10 µM / activation at 100 µM: HEK293, read-out: OR71a response (VUAA1-normalized response); for Average response / OR71a response (VUAA1-normalized) at 1 μM / OR71a response (VUAA1-normalized) at 10 μM / OR71a response (VUAA1-normalized) at 100 μM: OR71a cell line; for Average response: VUAA1-normalized response, mean of biological replicates; for OR71a Average response (VUAA1-normalized): 50 μM VUAA1 = 1
T2 construct: expressed in transfected cells
T2 sequence (Q9VUK5 1-378): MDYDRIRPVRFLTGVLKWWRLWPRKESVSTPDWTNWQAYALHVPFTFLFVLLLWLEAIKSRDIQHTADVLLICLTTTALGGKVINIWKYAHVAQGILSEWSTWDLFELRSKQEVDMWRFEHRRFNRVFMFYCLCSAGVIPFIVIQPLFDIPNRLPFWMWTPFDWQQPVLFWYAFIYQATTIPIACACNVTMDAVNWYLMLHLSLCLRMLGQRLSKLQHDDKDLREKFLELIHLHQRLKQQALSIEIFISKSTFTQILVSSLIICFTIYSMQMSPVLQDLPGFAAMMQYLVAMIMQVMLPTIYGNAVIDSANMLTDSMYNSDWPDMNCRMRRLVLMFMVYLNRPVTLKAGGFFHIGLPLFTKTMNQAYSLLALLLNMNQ
T2 sequence (Q9VNB5 1-486 partner): T1 sequence (Q9VNB5 1-486 partner)
Outline: as §1

[3] = VOC concentration 1 μM, read-out: OR49b response (VUAA1-normalized response)
[4] = VOC concentration 10 μM, read-out: OR49b response (VUAA1-normalized response)
[5] = VOC concentration 100 μM, read-out: OR49b response (VUAA1-normalized response)
[6] = concentration 1, normalized fluorescence change, values below 0.05 threshold given as 0
[7] = concentration 10, normalized fluorescence change, values below 0.05 threshold given as 0
[8] = concentration 100, normalized fluorescence change, values below 0.05 threshold given as 0
[9] = ligand concentration 1 (unit not given), threshold 0.05, below shown as 0
[10] = ligand concentration 10 (unit not given), threshold 0.05, below shown as 0
[11] = ligand concentration 100 (unit not given), threshold 0.05, below shown as 0

SMILES	DF norm AVERAGE OR49b [1]	activation at 1 µM [1, 3] [%]	activation at 10 µM [1, 4] [%]	activation at 100 µM [1, 5] [%]	Average response ([1]; odorant cc. 1 µM)	Average response ([1]; odorant cc. 10 µM)	Average response ([1]; odorant cc. 100 µM)	activation at 1 µM [2] [%]	activation at 10 µM [2] [%]	activation at 100 µM [2] [%]	Average response ([2]; cc. 1 µM)	Average response ([2]; cc. 10 µM)	Average response ([2]; cc. 100 µM)	DF norm AVERAGE OR71a [2, 6]	DF norm AVERAGE OR49b [1, 9]	DF norm AVERAGE OR49b [1, 10]	DF norm AVERAGE OR49b [1, 11]	DF norm AVERAGE OR71a [2, 9]	DF norm AVERAGE OR71a [2, 10]	DF norm AVERAGE OR71a [2, 11]	also measured
CCCCCO [1-pentanol]	0	0	0	0	0.00	0.00	0.0167	0	0	0	0.0261	0.00	0.00	0	–	–	–	–	–	–	DF norm AVERAGE OR71a [2, 7]: 0; DF norm AVERAGE OR71a [2, 8]: 0
CC1=CC[C@@H](C(C)(C)O)CC1 [alpha-terpineol]	–	0	0	0	0.00	0.00	0.0245	0	0	0	0.00	0.00	0.04	–	0	0	0	0	0	0	–
Cc1ccccc1C [o-xylene]	–	–	–	–	0.00	0.09	0.64	–	–	–	0.00	0.00	0.00	–	0	0.08728	0.6438	0	0	0	activation at 1 µM ([1]; 1 μM VOC, 50 μM VUAA1 = 1, read-out: OR49b Average response (VUAA1-normalized)): 0%; activation at 10 µM ([1]; 10 μM VOC, 50 μM VUAA1 = 1, read-out: OR49b Average response (VUAA1-normalized)): 9%; activation at 100 µM ([1]; 100 μM VOC, 50 μM VUAA1 = 1, read-out: OR49b Average response (VUAA1-normalized)): 64%; OR49b response (VUAA1-normalized) at 1 μM ([1]; VOC concentration 1 μM): 0.00; OR49b response (VUAA1-normalized) at 10 μM ([1]; VOC concentration 10 μM): 0.09; OR49b response (VUAA1-normalized) at 100 μM ([1]; VOC concentration 100 μM): 0.64; OR71a response (VUAA1-normalized) at 1 μM ([2]; VOC concentration 1 μM): 0.00; OR71a response (VUAA1-normalized) at 10 μM ([2]; VOC concentration 10 μM): 0.00; OR71a response (VUAA1-normalized) at 100 μM ([2]; VOC concentration 100 μM): 0.00
CCOC(=O)CC [ethyl propionate]	–	0	0	0	0.00	0.00	0.0428	0	0	0	0.0185	0.00	0.00	–	0	0	0	0	0	0	–
C=C1CCC2CC1C2(C)C (stereo not drawn) [beta-pinene]	–	6.58	5	0	0.0658	0.05	0.00	0	0	0	0.0344	0.0361	0.00	–	0.06581	0.05055	0	0	0	0	–
CC/C=C\CCOC(C)=O [Z-3-hexenyl acetate]	–	–	–	–	–	–	–	–	–	–	–	–	–	–	–	–	–	–	–	–	OR49b response (VUAA1-normalized) at 1 μM ([1]; VOC concentration 1 μM): 0.00; OR49b response (VUAA1-normalized) at 10 μM ([1]; VOC concentration 10 μM): 0.00; OR49b response (VUAA1-normalized) at 100 μM ([1]; VOC concentration 100 μM): 0.00; OR71a response (VUAA1-normalized) at 1 μM ([2]; VOC concentration 1 μM): 0.00; OR71a response (VUAA1-normalized) at 10 μM ([2]; VOC concentration 10 μM): 0.00; OR71a response (VUAA1-normalized) at 100 μM ([2]; VOC concentration 100 μM): 0.00
CC1=CCC2C(C1)C2(C)C (stereo not shown) [3-carene]	0	0	0	0	0.00	0.00	0.00	0	0	0	0.00	0.00	0.00	0	–	–	–	–	–	–	DF norm AVERAGE OR71a [2, 7]: 0; DF norm AVERAGE OR71a [2, 8]: 0
CCOC(=O)c1ccccc1 [ethyl benzoate]	–	6	0	0	0.06	0.0464	0.0169	0	5.54	11	0.04	0.0554	0.11	–	0.05937	0	0	0	0.05543	0.1075	OR71a Average response (VUAA1-normalized) ([2]; 1 μM VOC): 0.04; OR71a Average response (VUAA1-normalized) ([2]; 10 μM VOC): 0.06; OR71a Average response (VUAA1-normalized) ([2]; 100 μM VOC): 0.11
C=C(C)C1CCC2(C)OC2C1 (single isomer, unassigned; (+)) [(+)-limonene oxide]	0	–	–	–	0.00	0.00	0.00	–	–	–	0.0247	0.0256	0.00	0	–	–	–	–	–	–	OR49b response (VUAA1-normalized response) ([1]; VOC concentration 1 μM): 0.00; OR49b response (VUAA1-normalized response) ([1]; VOC concentration 10 μM): 0.00; OR49b response (VUAA1-normalized response) ([1]; VOC concentration 100 μM): 0.00; OR71a response (VUAA1-normalized response) ([2]; VOC concentration 1 μM): 0.00; OR71a response (VUAA1-normalized response) ([2]; VOC concentration 10 μM): 0.00; OR71a response (VUAA1-normalized response) ([2]; VOC concentration 100 μM): 0.00; DF norm AVERAGE OR71a [2, 7]: 0; DF norm AVERAGE OR71a [2, 8]: 0
C=CC(O)CCCCC (stereo not shown) [1-octen-3-ol]	0	0	0	0	0.00	0.0174	0.0145	0	0	5.55	0.00	0.0223	0.0555	0	–	–	–	–	–	–	DF norm AVERAGE OR71a [2, 7]: 0; DF norm AVERAGE OR71a [2, 8]: 0.05555
